This is an account of results in patent US9108854B2, “Biocidal colloidal dispersions of silica particles with silver ions adsorbed thereon” (PREBONA AB, priority 2009, dated 2015).

The assay has as its system fungi. Kind of assay: Fungal growth on treated slices of French bread. The settings on record: slice brushed on all sides with 1000 ppm Ag; 3 days in warm and humid atmosphere, 20-35° C. As for the experimental part:
Slices of French bread from a local baker were used as substrates for fungal growth. • 1. Bread slice was brushed on all sides with the sol containing 1000 ppm Ag • 2. […] Bread slice was untreated.
The bread slices on a dinner plate were put in a plastic bag, which in turn was placed in a glassed-in porch where the temperature varied between 20 and 35° C. over the day.

Consider silver nitrate [AgNO3 solution], for which the “resistance of bread slice to fungi attack” value is “affords some protection”.
